Measured values published in patent publication US20240390369A1, “METHODS FOR DETERMINING RESPONSIVENESS TO TYK2 INHIBITORS” (Bristol-Myers Squibb Company, priority 2021, published 2024).

Tested on: β-defensin 2 (BD2)
Assay: Serum β-defensin 2 level over sixteen weeks of treatment (ELISA)
Assay type: in vivo, human
Details: 12 mg QD treatment arm; sixteen-week treatment period (FIG. 43B)
Protocol: Levels of proteins in serum were measured at baseline and at various points during sixteen weeks of treatment with deucravacitinib. […] Levels of BD2 in serum samples were measured by ELISA; levels of IL-19 and IL-17A in serum were each measured by ultrasensitive Simoa technology.

[2H]C([2H])([2H])NC(=O)c1nnc(NC(=O)C2CC2)cc1Nc1cccc(-c2ncn(C)n2)c1OC [deucravacitinib, 6-(cyclopropanecarboxamido)-4-((2-methoxy-3-(1-methyl-1H-1,2,4-triazol-3-yl)phenyl)amino)-N-(methyl-d3)pyridazine-3-carboxamide]
Change from baseline in serum BD2 level, PASI75 responders versus non-responders: greater reductions in BD2 serum level were observed over time in the PASI75 responder group compared with the non-responder group
